Data from ChEMBL document CHEMBL2390902, “Discovery of 1-(1,3,5-triazin-2-yl)piperidine-4-carboxamides as inhibitors of soluble epoxide hydrolase” (Bioorg Med Chem Lett, 2013).

Assays:
[1] = biological target: Cytochrome P450 2C8 (Homo sapiens, UniProt P10632); assay: Inhibition of CYP2C8 (unknown origin); type: ADME
[2] = biological target: Histamine H2 receptor (Homo sapiens) (UniProt P25021); assay: Inhibition of human histamine H2 receptor at 1 uM relative to control
[3] = species on record: Homo sapiens; assay: Inhibition of human chloride channel at 1 uM relative to control
[4] = Oral bioavailability in rat; type: ADME, organism-based; conditions: in vivo
[5] = biological target: Neurotensin receptor type 1 (Homo sapiens) (UniProt P30989); assay: Inhibition of human NTS1 receptor at 1 uM relative to control
[6] = biological target: 5-hydroxytryptamine receptor 1A (Homo sapiens) (UniProt P08908); assay: Inhibition of human 5-HT1A receptor at 1 uM relative to control
Sequence of 5-hydroxytryptamine receptor 1A (Homo sapiens) (P08908 whole entry): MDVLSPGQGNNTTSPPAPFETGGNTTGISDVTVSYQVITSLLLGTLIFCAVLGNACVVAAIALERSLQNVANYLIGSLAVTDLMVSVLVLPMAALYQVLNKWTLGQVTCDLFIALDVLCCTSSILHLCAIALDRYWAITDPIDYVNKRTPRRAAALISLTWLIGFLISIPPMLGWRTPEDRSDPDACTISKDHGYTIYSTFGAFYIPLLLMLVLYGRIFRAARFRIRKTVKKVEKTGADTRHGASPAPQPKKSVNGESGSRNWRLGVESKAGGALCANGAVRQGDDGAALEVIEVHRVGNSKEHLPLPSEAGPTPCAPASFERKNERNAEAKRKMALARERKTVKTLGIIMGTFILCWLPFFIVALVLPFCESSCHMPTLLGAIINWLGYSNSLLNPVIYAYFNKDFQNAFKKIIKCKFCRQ

[7] = biological target: Neuropeptide Y receptor type 2 (Homo sapiens) (UniProt P49146); assay: Inhibition of human Y2 receptor at 1 uM relative to control
[8] = species on record: Homo sapiens; assay: Inhibition of human sigma receptor at 1 uM relative to control
[9] = biological target: Muscarinic acetylcholine receptor M1 (Homo sapiens) (UniProt P11229); assay: Inhibition of human M1 receptor at 1 uM relative to control
Sequence of Muscarinic acetylcholine receptor M1 (Homo sapiens) (P11229 whole entry): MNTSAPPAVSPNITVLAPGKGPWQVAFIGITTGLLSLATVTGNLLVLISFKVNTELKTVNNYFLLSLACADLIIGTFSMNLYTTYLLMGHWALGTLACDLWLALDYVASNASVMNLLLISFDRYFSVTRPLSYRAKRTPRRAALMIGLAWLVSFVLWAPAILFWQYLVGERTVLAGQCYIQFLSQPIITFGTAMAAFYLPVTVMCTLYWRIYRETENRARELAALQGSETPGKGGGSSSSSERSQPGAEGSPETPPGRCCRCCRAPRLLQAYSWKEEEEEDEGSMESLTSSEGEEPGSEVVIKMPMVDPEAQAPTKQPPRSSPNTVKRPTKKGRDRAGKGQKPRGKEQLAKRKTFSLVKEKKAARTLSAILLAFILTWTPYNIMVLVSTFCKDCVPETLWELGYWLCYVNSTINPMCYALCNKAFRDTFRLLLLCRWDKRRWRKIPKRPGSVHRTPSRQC

[10] = biological target: Mu-type opioid receptor (Homo sapiens) (UniProt P35372); assay: Inhibition of human mu opioid receptor at 1 uM relative to control
Sequence of Mu-type opioid receptor (Homo sapiens) (P35372 whole entry): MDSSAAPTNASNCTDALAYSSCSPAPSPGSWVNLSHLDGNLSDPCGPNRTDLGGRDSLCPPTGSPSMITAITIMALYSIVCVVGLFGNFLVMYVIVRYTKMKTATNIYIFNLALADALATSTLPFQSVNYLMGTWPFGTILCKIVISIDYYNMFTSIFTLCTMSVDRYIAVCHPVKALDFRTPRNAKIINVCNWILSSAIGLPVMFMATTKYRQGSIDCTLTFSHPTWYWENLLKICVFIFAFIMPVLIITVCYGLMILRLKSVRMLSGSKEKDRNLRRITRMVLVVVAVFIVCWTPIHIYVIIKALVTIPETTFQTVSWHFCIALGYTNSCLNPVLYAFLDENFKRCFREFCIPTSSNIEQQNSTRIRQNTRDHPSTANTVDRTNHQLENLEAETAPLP

[11] = biological target: Kappa-type opioid receptor (Homo sapiens) (UniProt P41145); assay: Inhibition of human kappa opioid receptor at 1 uM relative to control
[12] = biological target: Beta-1 adrenergic receptor (Homo sapiens) (UniProt P08588); assay: Inhibition of human beta1 receptor at 1 uM relative to control
Sequence of Beta-1 adrenergic receptor (Homo sapiens) (P08588 whole entry, looked up): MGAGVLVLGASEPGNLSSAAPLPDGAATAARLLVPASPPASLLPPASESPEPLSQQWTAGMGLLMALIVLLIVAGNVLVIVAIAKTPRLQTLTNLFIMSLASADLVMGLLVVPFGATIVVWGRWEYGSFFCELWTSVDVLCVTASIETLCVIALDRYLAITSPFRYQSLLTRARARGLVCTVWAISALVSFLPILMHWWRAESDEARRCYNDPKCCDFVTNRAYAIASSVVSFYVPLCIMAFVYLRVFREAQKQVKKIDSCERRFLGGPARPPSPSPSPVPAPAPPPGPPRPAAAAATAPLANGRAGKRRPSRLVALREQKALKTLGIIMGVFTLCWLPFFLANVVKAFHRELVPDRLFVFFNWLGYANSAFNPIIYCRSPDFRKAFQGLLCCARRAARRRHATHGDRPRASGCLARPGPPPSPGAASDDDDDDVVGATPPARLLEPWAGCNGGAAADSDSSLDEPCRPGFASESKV

[13] = species on record: Homo sapiens; assay: Inhibition of human P2X receptor at 1 uM relative to control
[14] = biological target: Sodium-dependent dopamine transporter (Homo sapiens) (UniProt Q01959); assay: Inhibition of human dopamine transporter at 1 uM relative to control
Sequence of Sodium-dependent dopamine transporter (Homo sapiens) (Q01959 whole entry): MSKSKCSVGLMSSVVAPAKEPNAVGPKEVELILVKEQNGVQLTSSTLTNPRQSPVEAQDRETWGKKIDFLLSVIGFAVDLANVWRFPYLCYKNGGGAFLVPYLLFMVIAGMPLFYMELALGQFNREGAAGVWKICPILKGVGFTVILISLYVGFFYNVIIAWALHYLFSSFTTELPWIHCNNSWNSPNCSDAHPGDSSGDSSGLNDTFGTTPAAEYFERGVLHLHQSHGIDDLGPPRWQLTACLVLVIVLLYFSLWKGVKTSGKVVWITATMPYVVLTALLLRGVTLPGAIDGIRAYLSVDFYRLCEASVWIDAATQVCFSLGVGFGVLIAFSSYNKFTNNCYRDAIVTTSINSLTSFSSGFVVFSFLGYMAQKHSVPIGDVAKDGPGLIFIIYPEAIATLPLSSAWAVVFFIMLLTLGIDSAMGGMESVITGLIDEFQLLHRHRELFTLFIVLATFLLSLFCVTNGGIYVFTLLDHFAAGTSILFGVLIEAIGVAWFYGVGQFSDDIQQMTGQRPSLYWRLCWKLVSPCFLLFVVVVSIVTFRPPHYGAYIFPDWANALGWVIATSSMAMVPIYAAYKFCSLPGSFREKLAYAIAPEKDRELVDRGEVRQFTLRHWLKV

[15] = Fraction unbound in rat plasma; type: ADME, cell-free
[16] = biological target: 5-hydroxytryptamine receptor 3A (Homo sapiens) (UniProt P46098); assay: Inhibition of human 5-HT3 receptor at 1 uM relative to control
Sequence of 5-hydroxytryptamine receptor 3A (Homo sapiens) (P46098 whole entry): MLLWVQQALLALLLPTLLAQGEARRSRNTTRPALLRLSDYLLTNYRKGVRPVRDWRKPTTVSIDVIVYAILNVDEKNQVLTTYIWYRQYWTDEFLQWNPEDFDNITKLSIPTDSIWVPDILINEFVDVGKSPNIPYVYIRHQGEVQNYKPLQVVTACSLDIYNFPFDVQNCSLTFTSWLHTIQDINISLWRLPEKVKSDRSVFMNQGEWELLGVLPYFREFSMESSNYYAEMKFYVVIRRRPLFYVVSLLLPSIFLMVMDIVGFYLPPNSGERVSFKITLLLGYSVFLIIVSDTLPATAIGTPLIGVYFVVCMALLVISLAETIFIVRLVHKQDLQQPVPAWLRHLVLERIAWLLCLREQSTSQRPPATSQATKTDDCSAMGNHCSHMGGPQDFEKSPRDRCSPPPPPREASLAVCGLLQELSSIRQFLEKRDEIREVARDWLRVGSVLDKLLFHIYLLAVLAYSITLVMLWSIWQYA

[17] = biological target: Muscarinic acetylcholine receptor M2 (Homo sapiens) (UniProt P08172); assay: Inhibition of human M2 receptor at 1 uM relative to control
Sequence of Muscarinic acetylcholine receptor M2 (Homo sapiens) (P08172 whole entry): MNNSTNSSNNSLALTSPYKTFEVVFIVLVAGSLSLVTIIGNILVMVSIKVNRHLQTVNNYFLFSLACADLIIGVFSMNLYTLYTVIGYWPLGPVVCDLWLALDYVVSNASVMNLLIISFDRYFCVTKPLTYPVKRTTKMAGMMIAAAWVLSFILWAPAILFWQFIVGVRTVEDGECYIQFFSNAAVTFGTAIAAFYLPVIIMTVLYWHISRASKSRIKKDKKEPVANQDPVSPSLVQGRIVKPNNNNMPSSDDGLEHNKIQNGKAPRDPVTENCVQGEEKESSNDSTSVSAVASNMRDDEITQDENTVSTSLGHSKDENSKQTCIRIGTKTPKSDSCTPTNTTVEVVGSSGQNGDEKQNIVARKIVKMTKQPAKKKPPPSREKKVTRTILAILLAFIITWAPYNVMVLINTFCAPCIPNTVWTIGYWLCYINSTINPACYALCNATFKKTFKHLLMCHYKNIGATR

[18] = Plasma clearance in rat at 2 mg/kg, iv; type: ADME, organism-based; set-up: dose 2 mg/kg, route intravenous
[19] = biological target: T1, Bifunctional epoxide hydrolase 2 (Homo sapiens, UniProt P34913)
T1 sequence (P34913 whole entry): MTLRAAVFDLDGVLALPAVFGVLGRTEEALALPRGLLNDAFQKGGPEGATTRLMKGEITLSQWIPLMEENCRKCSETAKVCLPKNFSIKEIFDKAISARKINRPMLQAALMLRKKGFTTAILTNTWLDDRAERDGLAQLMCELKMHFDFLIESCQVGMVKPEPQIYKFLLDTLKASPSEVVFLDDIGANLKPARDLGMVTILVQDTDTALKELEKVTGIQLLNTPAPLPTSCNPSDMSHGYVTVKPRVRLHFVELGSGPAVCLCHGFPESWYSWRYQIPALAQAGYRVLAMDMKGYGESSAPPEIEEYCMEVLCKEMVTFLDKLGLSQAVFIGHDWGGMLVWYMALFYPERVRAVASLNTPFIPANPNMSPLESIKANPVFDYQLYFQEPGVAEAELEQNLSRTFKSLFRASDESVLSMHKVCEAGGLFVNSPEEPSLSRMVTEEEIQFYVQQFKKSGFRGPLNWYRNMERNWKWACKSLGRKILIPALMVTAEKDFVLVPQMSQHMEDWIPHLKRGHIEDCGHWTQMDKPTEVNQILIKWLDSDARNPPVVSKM
Description: Inhibition of human soluble epoxide hydrolase overexpressed in HEK293F cells using EET as substrate assessed as formation of DHET incubated for 30 mins prior to substrate addition measured after 60 mins by ELISA

[20] = biological target: Sodium-dependent noradrenaline transporter (Homo sapiens) (UniProt P23975); assay: Inhibition of human norepinephrine transporter at 1 uM relative to control
Sequence of Sodium-dependent noradrenaline transporter (Homo sapiens) (P23975 whole entry): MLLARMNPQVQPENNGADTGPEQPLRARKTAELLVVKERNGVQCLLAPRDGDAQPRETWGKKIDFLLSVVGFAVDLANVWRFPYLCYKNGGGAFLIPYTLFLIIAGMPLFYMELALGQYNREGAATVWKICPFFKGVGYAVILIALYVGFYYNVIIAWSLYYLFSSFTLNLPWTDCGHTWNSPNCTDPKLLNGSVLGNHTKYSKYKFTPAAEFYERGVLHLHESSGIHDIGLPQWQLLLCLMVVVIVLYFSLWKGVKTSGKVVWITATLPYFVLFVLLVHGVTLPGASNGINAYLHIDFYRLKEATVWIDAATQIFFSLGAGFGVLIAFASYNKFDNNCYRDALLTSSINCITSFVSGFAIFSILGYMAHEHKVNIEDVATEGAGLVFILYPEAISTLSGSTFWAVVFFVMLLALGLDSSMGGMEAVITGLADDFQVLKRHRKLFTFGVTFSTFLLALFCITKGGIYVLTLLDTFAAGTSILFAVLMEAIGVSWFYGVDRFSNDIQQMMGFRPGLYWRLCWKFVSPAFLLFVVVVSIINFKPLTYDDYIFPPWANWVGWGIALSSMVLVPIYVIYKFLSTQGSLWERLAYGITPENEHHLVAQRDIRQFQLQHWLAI

[21] = biological target: Adenosine receptor A1 (Homo sapiens) (UniProt P30542); assay: Inhibition of human adenosine A1 receptor at 1 uM relative to control
Sequence of Adenosine receptor A1 (Homo sapiens) (P30542 whole entry): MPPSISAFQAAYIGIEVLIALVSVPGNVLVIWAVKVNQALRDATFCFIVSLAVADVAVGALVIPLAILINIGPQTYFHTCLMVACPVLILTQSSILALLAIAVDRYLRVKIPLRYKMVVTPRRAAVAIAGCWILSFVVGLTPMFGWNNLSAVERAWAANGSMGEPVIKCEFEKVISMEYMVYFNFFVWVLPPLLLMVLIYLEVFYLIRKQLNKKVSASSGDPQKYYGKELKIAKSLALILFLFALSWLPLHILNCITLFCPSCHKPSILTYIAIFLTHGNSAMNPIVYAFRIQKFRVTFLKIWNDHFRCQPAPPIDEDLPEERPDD

[22] = biological target: 5-hydroxytryptamine receptor 5A (Homo sapiens) (UniProt P47898); assay: Inhibition of human 5-HT5A receptor at 1 uM relative to control
[23] = Cmax in rat at 2 mg/kg, po; type: ADME, organism-based; set-up: dose 2 mg/kg, route oral; conditions: in vivo
[24] = biological target: Vasoactive intestinal polypeptide receptor 1 (Homo sapiens) (UniProt P32241); assay: Inhibition of human VPAC1 receptor at 1 uM relative to control
[25] = test system: Rattus norvegicus; assay: Free maximum concentration of drug in rat at 2 mg/kg, po; type: ADME, organism-based; set-up: dose 2 mg/kg, route oral; conditions: in vivo
[26] = species on record: Homo sapiens; assay: Inhibition of human delta2 opioid receptor at 1 uM relative to control
[27] = biological target: Histamine H1 receptor (Homo sapiens) (UniProt P35367); assay: Inhibition of human histamine H1 receptor at 1 uM relative to control

Sequence of Histamine H2 receptor (Homo sapiens) (P25021 whole entry): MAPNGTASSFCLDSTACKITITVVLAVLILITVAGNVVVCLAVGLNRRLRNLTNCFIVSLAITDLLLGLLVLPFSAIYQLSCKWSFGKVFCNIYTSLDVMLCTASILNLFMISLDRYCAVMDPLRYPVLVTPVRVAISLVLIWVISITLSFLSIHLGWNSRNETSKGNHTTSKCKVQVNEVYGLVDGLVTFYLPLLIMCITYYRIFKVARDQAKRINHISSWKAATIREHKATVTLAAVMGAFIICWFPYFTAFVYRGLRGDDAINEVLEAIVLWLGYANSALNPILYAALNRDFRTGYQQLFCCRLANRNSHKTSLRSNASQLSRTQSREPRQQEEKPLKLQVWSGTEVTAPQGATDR

Compound: CNc1nc(C)nc(N2CCC(C(=O)NCc3ccc(Br)cc3OC(F)(F)F)CC2)n1
- IC50 [1]: > 30000 nM
- inhibition [2]: < 50%
- inhibition [3]: < 50%
- bioavailability [4]: 100%
- inhibition [5]: < 50%
- inhibition [6]: < 50%
- inhibition [7]: < 50%
- inhibition [8]: < 50%
- inhibition [9]: < 50%
- inhibition [10]: < 50%
- inhibition [11]: < 50%
- inhibition [12]: < 50%
- inhibition [13]: < 50%
- inhibition [14]: < 50%
- fraction unbound [15]: 0.015
- inhibition [16]: < 50%
- inhibition [17]: < 50%
- clearance [18]: 12 mL/min/kg
- IC50 [19]: 3 nM
- inhibition [20]: < 50%
- inhibition [21]: < 50%
- inhibition [22]: < 50%
- Cmax [23]: 223 nM
- inhibition [24]: < 50%
- fCmax [25]: 3 nM
- inhibition [26]: < 50%
- inhibition [27]: < 50%
